Values quoted from earlier work as cited in patent publication US9532941B2, “Method for treatment of hair loss with a combination of natural ingredients” (priority 2011, dated 2017).

What was measured:
human 5-α-reductase = settings: cell free assay in vitro
human hair = settings: in vitro exposure; cell proliferation markers

Cn1c(=O)c2c(ncn2C)n(C)c1=O [caffeine]
counteraction of testosterone-induced growth suppression (human hair follicles; caffeine 0.001% and 0.005%, 5 mg/ml testosterone): counteracted | hair follicle growth, caffeine alone (human hair follicles; caffeine alone): significant stimulation of hair follicle growth

C[C@]12CC[C@H]3[C@@H](CCC4=CC(=O)CC[C@@]43C)[C@@H]1CC[C@@H]2O [testosterone]
growth of hair follicles (human hair follicles; hair follicles treated with 5 mg/ml testosterone): Significant growth suppression

epigallocatechin-3-gallate [EGCG]
inhibition of human 5-α-reductase, cell free (human 5-α-reductase): potently inhibited | human hair growth (human hair): stimulates human hair growth
